Literature values as cited in patent US8183203B2, “Methods for treating pulmonary hypertension and compositions comprising vasoactive intestinal peptide” (Avant Garde Therapeutics & Technologies LLC, priority 1999, dated 2012).

How the values were obtained:
Na+ channels = details: isolated rabbit ventricular myocytes, acute
[1] = tested on: dogs left in ventricular fibrillation; details: four dogs, ventricular fibrillation for seven minutes, 4 μg/kg IV bolus, then defibrillated

Compound	burst mode gating of Na+ channels (Na+ channels)	time to peak action (onset of inotropic action) (isolated rat hearts) [s]	maximum dp/dt (contractility) after a bolus injection (isolated rat hearts)	dogs successfully resuscitated [1]
N[C@@H](Cc1cc(I)c(Oc2ccc(O)c(I)c2)c(I)c1)C(=O)O [T3, 3,5,3′ triiodothyronine]	acutely increased	15	rapidly and significantly increased	Three out of four
CC(C)NCC(O)c1ccc(O)c(O)c1 (stereo not drawn) [isoproterenol]	–	60	also increased	–
